Key:
Assay type in all cases: cell-based
Interferon-α [1] = experiment: Induction of Interferon-α using fresh human PBMCs; conditions: PBMC, two donors, 24 hr incubation, percentage of 2 μM resiquimod control, read-out: mean pEC50 for induction of IFN-α (converted)
Protocol: (§1) Assay for the Induction of Interferon-α and TNF-α Using Fresh Human Peripheral Blood Mononuclear Cells (PBMCs)
(§2) Compounds were dissolved and serially diluted in DMSO to give 100× the required concentration range using a Biomek 2000. 1 ul of test compound was transferred into 96-well tissue culture plates using a Biomek FX. Each compound was assayed in duplicate for each donor. Each plate contained a dilution series of the TLR7/8 agonist resiquimod as standard and Column 11 contained 1 μl of 200 μM resiquimod (giving a 2 μM final concentration, used to define the approximate maximal response to resiquimod).
(§3) Blood samples from two human donors were collected into sodium heparin (10 U/ml). 25 ml volumes of whole blood were overlaid onto 15 mls Histopaque in Leucosep tubes which were centrifuged at 800 g for 20 min and the band at the plasma/histopaque interface carefully removed. The collected cells were centrifuged at 2500 rpm for 10 min and the pellet resuspended in 10 ml of media (RPMI 1640 (Low endotoxin) supplemented with 10% v/v foetal calf serum (FCS, low endotoxin) 100 U/ml penicillin G, 100 μg/ml streptomycin, 10 mM L-glutamine and 1× non-essential amino acids). A 1:20 dilution of the cells was prepared using trypan blue & the cells counted using a haemocytometer. The PBMCs were diluted to give a final concentration of 2×10^6/ml and 100 ul of this cells suspension was added to wells containing 1 μl of diluted test compound.
(§4) Incubation and Assays for Interferon-α and TNF-α
(§5) The cell preparations were incubated for 24 hr (37° C., 95% air, 5% CO2) after which a sample of the supernatant was removed using the Biomek FX and assayed for both IFN-α and TNF-α using the MSD (Mesoscale Discovery) electrochemiluminescence assay platform. The IFN-α assay was carried out similarly to that described above. The TNF-α assay was carried out as per kit instructions (Cat No K111BHB).
(§6) Cytokine released was expressed as a percentage of the 2 μM resiquimod control (column 11). This percentage was plotted against compound concentration and the pEC50 for the response determined by non-linear least squares curve fitting. For the IFN-α responses generally a 4 parameter logistic model was selected. For the TNF responses where a clear maximum response was obtained (i.e. a well defined plateau in the response was observed) then a 4 parameter model was generally used. If the upper asymptote of the curve wasn't well defined then the curve fitting was generally constrained to a maximal response of 100% (i.e. to the response to 2 μM resiquimod) or to the response of the highest concentration tested if this was greater than the resiquimod response. Some curves were bell shaped for one or both cytokines and the cytokine data on the down slope of the bell shaped response (i.e. concentrations above those giving the maximal response) were generally excluded from the fit, usually with the exception of the concentration immediately above the peak response. Curve fitting thus concentrated on the up slope of the dose response curve.

Interferon-α [2] = experiment: Induction of Interferon-α using cryopreserved human PBMCs; conditions: PBMC, 24 h, 24 h incubation, normalised to 1 uM resiquimod and DMSO, read-out: mean pEC50 (induction of Interferon-α) (converted)
Protocol: Assay for the Induction of Interferon-α Using Cryopreserved Human Peripheral Blood Mononuclear Cells (PBMCs)
Compounds were dissolved in DMSO. Serial 2-fold dilutions with DMSO were prepared and 0.25 μl dispensed into 384-well clear Greiner polypropylene plates.
Blood samples of up to 200 ml were obtained from healthy human donors. Whole blood in 25 ml volumes was overlaid onto 15 ml Ficoll gradients in Leucosep tubes, and centrifuged at 1000 g for 20 min. Cells in the band at the plasma/histopaque interface were carefully removed and washed twice with PBS (centrifuged at 400 g for 5 min to harvest). The final pellet was resuspended in freezing medium (90% Heat-inactivated serum, 10% DMSO) to a cell concentration of 4×10^7 cells/ml. The resuspended cells were then cryopreserved (frozen) using a rate controlled freezer, and stored at −140° C. for up to 4 months.
Incubation and Assay for Interferon-α
Immediately prior to assay, vials of cryopreserved (frozen) PBMCs were thawed rapidly in a water bath at 37° C. A 1:10 dilution of the cells in trypan blue was prepared and counted. The PBMCs were then diluted in growth media [RPMI 1640 containing 10% fetal calf serum (invitrogen), Penicillin+[…] (Gibco cat. #25030-024, 1:50), L-Glutamine 2 mM, and 1000 units/ml recombinant human IFN-gamma (Preprotech catalogue #300-02)] to a density of 1×10^6 cells/ml, and 50 ul/well dispensed to 384-well clear Greiner polypropylene plates containing 0.25 μl DMSO or test compound in 0.25 μl DMSO. […] Plates were incubated for 24 h at 37° C. in 5% CO2.
A multi-isoform immunoassay was used to quantify IFN-α in PBMC supernatants. Rabbit polyclonal antibody against human IFN-α (catalogue number 31101, Stratech Scientific) was diluted 1:10000 in assay buffer (RPMI 1640 containing 10% fetal calf serum, Invitrogen) and 20 μl was added to each well of an MSD (Meso-Scale Discovery) single small-spot 384-well GAR (goat anti-rabbit antibody coated) plate. The plate was incubated for 1 h at room temperature with vigorous shaking. Following three washes with PBS, 20 μl of cell supernatant were added to each well of the plate. The plate was then incubated for 1 h at room temperature with vigorous shaking. A pair of monoclonal antibodies to IFN-α (catalogue numbers 21100 and 21112, Stratech Scientific) were labelled with sulfo-TAG (MSD), diluted 1:1000 in assay buffer and 20 μl added to each well of the plate. The plate was further incubated for 1 h at room temperature with vigorous shaking. Following three washes with PBS, 30 μl of ×2 T buffer (MSD) was added to each well and the plate was read on an MSD Sector 6000 plate reader.
Data were normalised to internal plate controls of 1 uM resiquimod (n=16) and DMSO (n=16). pEC50 values were derived by 4-parameter curve fit with IRLS in ActivityBase, from 11-point, two-fold serial dilution of test compounds.

TNF-α = experiment: Induction of TNF-α using fresh human PBMCs; conditions: PBMC, two donors, 24 hr incubation, percentage of 2 μM resiquimod control, read-out: mean pEC50 for induction of TNF-α (converted)
Protocol: as §1, §2, §3, §4, §5, §6

| SMILES | EC50 (Interferon-α [1]) | EC50 (Interferon-α [2]) | EC50 (TNF-α) |
| --- | --- | --- | --- |
| CCCCOc1nc(N)c2[nH]c(=O)n(CCCNCC3CCOCC3)c2n1 [Example 8, 6-Amino-2-(butyloxy)-9-{3-[(tetrahydro-2H-pyran-4-ylmethyl)amino]propyl}-7,9-dihydro-8H-purin-8-one] | < 1 µM | < 10 µM | > 10 µM |
| CCCCOc1nc(N)c2[nH]c(=O)n(CCCNCC3CCCO3)c2n1 (centres unmarked) [Example 3, 6-Amino-2-(butyloxy)-9-{3-[(tetrahydro-2-furanylmethyl)amino]propyl}-7,9-dihydro-8H-purin-8-one] | < 1 µM | < 10 µM | > 10 µM |
| CCCCNc1nc(N)c2[nH]c(=O)n(CCCNCCC3CCCCO3)c2n1 (centres unmarked) [Example 18, 6-Amino-2-(butylamino)-9-(3-{[2-(tetrahydro-2H-pyran-2-yl)ethyl]amino}propyl)-7,9-dihydro-8H-purin-8-one] | – | < 10 µM | – |
| CCCCNc1nc(N)c2[nH]c(=O)n(CCCNCC3CCOCC3)c2n1 [Example 17, 6-Amino-2-(butylamino)-9-{3-[(tetrahydro-2H-pyran-4-ylmethyl)amino]propyl}-7,9-dihydro-8H-purin-8-one] | – | < 10 µM | – |
| CCCCOc1nc(N)c2[nH]c(=O)n(CCCNCC3CCCOC3)c2n1 (centres unmarked) [Example 7, 6-Amino-2-(butyloxy)-9-{3-[(tetrahydro-2H-pyran-3-ylmethyl)amino]propyl}-7,9-dihydro-8H-purin-8-one] | – | < 10 µM | – |
| CCCCOc1nc(N)c2[nH]c(=O)n(CCCNCC3CCCCO3)c2n1 (centres unmarked) [Example 6, 6-Amino-2-(butyloxy)-9-{3-[(tetrahydro-2H-pyran-2-ylmethyl)amino]propyl}-7,9-dihydro-8H-purin-8-one] | – | < 10 µM | – |
| CCCCOc1nc(N)c2[nH]c(=O)n(CCCNCCC3CCCO3)c2n1 (centres unmarked) [Example 5, 6-Amino-2-(butyloxy)-9-(3-{[2-(tetrahydro-2-furanyl)ethyl]amino}propyl)-7,9-dihydro-8H-purin-8-one] | < 1 µM | < 10 µM | > 10 µM |
| CCCCOc1nc(N)c2[nH]c(=O)n(CCCNCC3CCOC3)c2n1 (centres unmarked) [Example 4, 6-Amino-2-(butyloxy)-9-{3-[(tetrahydro-3-furanylmethyl)amino]propyl}-7,9-dihydro-8H-purin-8-one] | – | < 10 µM | – |
| CCCCOc1nc(N)c2[nH]c(=O)n(CCCN[C@@H]3CCCO3)c2n1 [Example 2, 6-Amino-2-(butyloxy)-9-{3-[(2S)-tetrahydro-2-furanylamino]propyl}-7,9-dihydro-8H-purin-8-one] | – | < 10 µM | – |
| CCCCNc1nc(N)c2[nH]c(=O)n(CCCNCCC3CCCO3)c2n1 (centres unmarked) [Example 16, 6-Amino-2-(butylamino)-9-(3-{[2-(tetrahydro-2-furanyl)ethyl]amino}propyl)-7,9-dihydro-8H-purin-8-one] | < 1 µM | < 10 µM | > 10 µM |
| CCC[C@H](C)Oc1nc(N)c2[nH]c(=O)n(CCCNCC3CCOCC3)c2n1 [Example 14, 6-Amino-2-{[(1S)-1-methylbutyl]oxy}-9-{3-[(tetrahydro-2H-pyran-4-ylmethyl)amino]propyl}-7,9-dihydro-8H-purin-8-one] | < 0.1 µM | < 10 µM | > 1 µM |
| CCCCOc1nc(N)c2[nH]c(=O)n(CCCNCCC3CCOCC3)c2n1 [Example 11, 6-Amino-2-(butyloxy)-9-(3-{[2-(tetrahydro-2H-pyran-4-yl)ethyl]amino}propyl)-7,9-dihydro-8H-purin-8-one] | – | < 10 µM | – |
| CCCCNc1nc(N)c2[nH]c(=O)n(CCCNCC3CCCO3)c2n1 (centres unmarked) [Example 15, 6-Amino-2-(butylamino)-9-{3-[(tetrahydro-2-furanylmethyl)amino]propyl}-7,9-dihydro-8H-purin-8-one] | – | < 10 µM | – |
| CCC[C@H](C)Oc1nc(N)c2[nH]c(=O)n(CCCNCC3CCCO3)c2n1 (stereo partly drawn) [Example 12, 6-Amino-2-{[(1S)-1-methylbutyl]oxy}-9-{3-[(tetrahydro-2-furanylmethyl)amino]propyl}-7,9-dihydro-8H-purin-8-one] | < 0.1 µM | – | > 1 µM |
| CCCCOc1nc(N)c2[nH]c(=O)n(CCCNCCC3CCCOC3)c2n1 (centres unmarked) [Example 10, 6-Amino-2-(butyloxy)-9-(3-{[2-(tetrahydro-2H-pyran-3-yl)ethyl]amino}propyl)-7,9-dihydro-8H-purin-8-one] | – | < 10 µM | – |
| CCCCOc1nc(N)c2[nH]c(=O)n(CCCNCCC3CCCCO3)c2n1 (centres unmarked) [Example 9, 6-Amino-2-(butyloxy)-9-(3-{[2-(tetrahydro-2H-pyran-2-yl)ethyl]amino}propyl)-7,9-dihydro-8H-purin-8-one] | < 1 µM | < 10 µM | > 10 µM |
| CCC[C@H](C)Oc1nc(N)c2[nH]c(=O)n(CCCNCCC3CCCO3)c2n1 (stereo partly drawn) [Example 13, 6-Amino-2-{[(1S)-1-methylbutyl]oxy}-9-(3-{[2-(tetrahydro-2-furanyl)ethyl]amino}propyl)-7,9-dihydro-8H-purin-8-one] | < 0.1 µM | – | > 1 µM |
| CCCCOc1nc(N)c2[nH]c(=O)n(CCCN[C@H]3CCCO3)c2n1 [Example 1, 6-Amino-2-(butyloxy)-9-{3-[(2R)-tetrahydro-2-furanylamino]propyl}-7,9-dihydro-8H-purin-8-one] | – | < 10 µM | – |

From patent US8575181B2, “Purine derivatives for use in the treatment of allergic, inflammatory and infectious diseases” (GlaxoSmithKline LLC, priority 2008, dated 2013)
